Values of other authors in publication PMC4621921 (Oncotarget, 2015).
Read-outs that look alike come from different tables or passages of the source.

Experiments:
[1] = tested on: castration-resistant prostate cancer; parameters: method as in earlier work; settings: phase 3, castration-resistant prostate cancer; no statistically significant improvement
prostate cancer = tested on: prostate cancer; parameters: method as in PMID 23169517; settings: phase 2, prostate cancer
[2] = parameters: method as in PMID 23169517, PMID 24002501; settings: clinical studies
[3] = in vivo

Row | Structure (SMILES) | median OS [1] [months] | evaluable patients with regression in soft tissue lesions (prostate cancer) [%] | PFS (prostate cancer; versus 5.9 weeks with placebo) [weeks] | common AEs [2] | common AEs [3]
1 | C[C@]12C=CC(=O)C=C1CC[C@@H]1[C@@H]2C(=O)C[C@@]2(C)[C@H]1CC[C@]2(O)C(=O)CO [prednisone] | 9.8 |  |  |  | 
2 | COc1cc2nccc(Oc3ccc(NC(=O)C4(C(=O)Nc5ccc(F)cc5)CC4)cc3)c2cc1OC [cabozantinib] | 11 | 72 | 23.9 | fatigue, decreased appetite, and diarrhea | 
3 | COc1cc2c(Oc3ccc(NC(=O)C4(C(=O)Nc5ccc(F)cc5)CC4)cc3F)ccnc2cc1OCCCN1CCOCC1 [foretinib] |  |  |  |  | fatigue, hypertension, and gastrointestinal toxicities
